The source of these data is patent publication EP0812839A1, “Irreversible HIV protease inhibitors, compositions containing same and process for the preparation thereof” (LG Chemical Limited, priority 1996, dated 1997).

A word on the pIC50: it is −log10 of the IC50, conventionally taken in molar units. The low end stands for a large IC50, the high end for a small IC50.

SMILES strings stand for the structures. pIC50: −log10 of the molar value.

The target in series [1] is T1, HIV-1 protease (Human immunodeficiency virus type 1 group M subtype B, UniProt P04585).
T1 construct: addition of 2.6nM of HIV-1 protease
The series can be described thus: Assay for inhibitory effect on HIV protease (time-dependent inactivation, HPLC readout of oligopeptide substrate cleavage). The series is classed as biochemical. The note with it: second order rate constant; 2.6nM HIV-1 protease; 50mM sodium acetate, pH 0.5; KINSIM/FITSIM program. The procedure:
The inhibitory effect on HIV protease of the compounds of the present invention was determined by the following method.
To a buffer solution comprising 50mM sodium acetate, pH 0.5, 1mM dithiothreitol(DTT), 1mM ethylenediamine-tetraacetate (EDTA), 0.75M ammonium sulfate and 0.1% NP 40(NONIGET P-40; Sigma Chemical Co., U.S.A.) was added a measured amount of a compound selected from Compound Nos. 1 to 12 to prepare a preincubation solution. Inhibition reaction was started with the addition of 2.6nM of HIV-1 protease to the preincubation solution. Each of 10µl sample of the reaction solution taken at a given time interval was added to 80µl of assay solution containing […] of reaction substrate in the same buffer solution as above to assay for the residual enzyme activity. In this context, an oligopeptide consisting of 11 amino acids, i.e., H-His-Lys-Ala-Arg-Val-Leu-Phe-(p-NO2)-(Glu-Ala-Ile-Ser-NH2), was used as a reaction substrate, which oligopeptide was to be cleaved in two by the breakage of amide bond between Leu and Phe-(P-NO2) upon the attack of HIV protease. The reaction rate was determined by subjecting the substrate before the reaction and the product after the reaction to HPLC separation and then measuring the relative amount of the product, using the strong absorbance of (p-NO2)-Phe at 280nm. The amounts of reduction in enzyme activity according to the elapsed time were measured and the natural logarithmic values(ln) of the measured amounts were plotted against time to obtain a linear graph and kobs was calculated from the slope of the linear graph.
The inhibition constant was calculated according to the following equation: (1)/(kobs)=(1)/(kina)+(KI)/(kina)(1)/([I]) [formula] wherein: kobs is a rate constant indicating the rate of reduction in enzyme activity according to the elapsed time under the presence of a given concentration of inhibitor, kina is a rate constant indicating the rate of chemical reaction forming covalent bond between an enzyme and an inhibitor in Michaelis-Menten complex, KI is an inhibition constant indicating the dissociation rate of Michaelis-Menten complex into an enzyme and an inhibitor, and [I] means the inhibitor concentration.
The above equation is applicable to an experiment carried out under the condition in which the concentration of inhibitor is far higher than that of enzyme (Steady State Kinetic). […] The inhibition constants KI and kina and second order rate constant kina/KI were obtained by inputting the value of [E]/([E]+[EI]+[EI']) into KINSIM/FITSIM program. In case that second order rate constant kina/KI is larger than 10^9, it is hard to calculate the exact values by KINSIM/FITSIM program [Williams, J.W. and Morrison, J.F., Methods, Enzymol., 63, 437-466([…]); and Zimmerle, C.T. and Frieden, C., J. Biochem., 258, 381-387(1989)].

In series [2] the test system is HIV-1. The series can be described thus: Anti-viral activity: syncytium formation (Sup T1) or reverse transcriptase assay (H9). The note with it: Human immunodeficiency virus 1, concentration that inhibits the proliferation of HIV by 50%, H9 or Sup T1 cell lines, 200 TCID50 of HIV-1. The series is classed as cell-based. As to the method:
The anti-viral activity of the compounds of the present invention was determined by measuring the concentration of the compounds that inhibits the proliferation of HIV by 50%(IC50) through a survey for syncytium formation or reverse transcriptase assay.
1 x 10^5 cells of each of H9(ATCC HTB 176) and Sup T1 cell lines were added to the wells of a 24-well microtiter plate and various concentrations of the compounds of the present invention were added thereto. 200 TCID50(200-fold of 50% tissue culture infection dose) of HIV-1 inoculum and rpmi-1640 medium(Sigma Chemical Co., U.S.A) were added successively to the wells and the plate was incubated at 37°C. In case of Sup T1, the number of syncytium formed was investigated after 3 to 9 days. IC50 of each compound was determined by measuring the concentration of inhibitor that can reduce the number of syncytium by 50% compared with those formed in the same condition without the inhibitor.
In case of H9, three-quarters(3/4) of the culture medium in volume was refreshed every 3 days; and after 9 days, 6ml of the culture fluid was taken and 2.5ml of 30% polyethyleneglycol(PEG, M.W. 6000-8000) and 0.4M NaCl were added thereto. The resulting solution was allowed to stand at 0°C overnight to precipitate virus particles. The solution was centrifuged at 2000rpm for 45 minutes, the supernatant was discarded therefrom and the precipitate was diluted with 20µl of a reverse transcriptase suspension buffer(50mM tris-HCl, pH 7.5, 1mM dithiothreitol, 20% glycerol, 0.25M KCl and 0.25% Triton X-100). The resulting suspension was stored in an Effendorf tube at -70°C until used. A procedure of freezing said virus suspension for 2 minutes in dry ice and thawing same at 37°C for 2 minutes was repeated three times and the resulting suspension was centrifuged at 4°C. The resulting supernatant was used in carrying out the reverse transcriptase assay.
10µl of the said viral suspension was added to a solution of: 10µl of buffer solution(250mM tris-HCl, pH 7.5, 37.5mM MgCl2, 0.25% triton X-100), 1.2µl of 200mM dithiothreitol, 5µl of 100µM oligo(dT)-poly(A)(Boeringer Manheim, 12-18 oligomer), 1µl(1µCi) of ^3H-TTP(Thymidinetri-phosphate) and 23.6µl of water; and the resulting mixture was placed at 37°C. After 1 hour, the mixture was poured onto a WHATMAN DEB1 filter and the filter was washed three times with 5ml of 2 x SSC buffer solution(17.53g of sodium chloride, 8.82g of sodium citrate, pH 7.0, 1 liter of water) for about 10 minutes each time and twice with 95% methanol for 10 seconds. The filter was put onto aluminum foil and dried with an infra-red lamp. The amount of radioactivity was counted using a liquid scintillation counter.

Series [3] has as its system H9 cell or Sup T1 cell. Put plainly: Cytotoxicity by trypan blue dye exclusion. The settings on record: concentration that causes death of cells by 50%, 0.1µM to 100µM tested. In kind it is cell-based.
Procedure: The medium was refreshed every 3 days and the extent of cell proliferation was observed using Hemacytometer according to the trypan blue dye exclusion technique which is well known in the art. CT50(i.e., concentration that causes death of cells by 50%) was determined.

As for `CC(C)[C@@H](Cc1ccccc1)NC(=O)OC[C@@H]1O[C@@H]1[C@H](Cc1ccccc1)NC(=O)[C@H](CC(N)=O)NC(=O)c1ccc2ccccc2n1` [Example 1, 4S-[N-(2-quinolinecarbonyl)-L-asparaginyl]amino-(3R,2S)-epoxy-5-phenylpentyl N-2R-(1-phenyl-3-methylbutyl) carbamate], the kina/KI in series [1] is on record as 10^9 - 10^10 min^-1M^-1. Further, in series [2], the pIC50 is 6.90. This molecule also gave a CT50 in series [3] of over 10 µM.

For the molecule `CC(C)[C@H](NC(=O)OC[C@@H]1O[C@@H]1[C@H](Cc1ccccc1)NC(=O)[C@H](CC(N)=O)NC(=O)c1ccc2ccccc2n1)c1ccccc1` [Example 2], the kina/KI in series [1] was 10^9 - 10^10 min^-1M^-1. The pIC50 in series [2] was 6.89. The molecule also showed a CT50 in series [3] of over 10 µM.

Consider `CC(C)C(NC(=O)OC[C@@H]1O[C@@H]1[C@H](Cc1ccccc1)NC(=O)[C@H](CC(N)=O)NC(=O)c1ccc2ccccc2n1)C(C)C` [Example 3], for which the kina/KI in series [1] was 10^9 - 10^10 min^-1M^-1. Further, in series [2], the pIC50 was 6.96. In series [3], this molecule yielded a CT50 of over 10 µM.

Turning to `CC(C)[C@@H](Cc1ccccc1)NC(=O)OC[C@@H]1O[C@@H]1[C@H](Cc1ccccc1)NC(=O)[C@@H](NC(=O)OCc1ccccc1)C(C)(C)S(C)(=O)=O` [Example 4, 4S-[(N-benzyloxycarbonyl)-β-methanesulfonyl-L-valinyl]amino-(3R,2S)-epoxy-5-phenyl-1-pentyl N-2R-(1-phenyl-3-methylbutyl) carbamate], the kina/KI in series [1] is reported as 10^9 - 10^10 min^-1M^-1. This molecule also gave a pIC50 in series [2] of 7.82. Also, the CT50 in series [3] was over 10 µM.

As for `CC(C)[C@H](NC(=O)OC[C@@H]1O[C@@H]1[C@H](Cc1ccccc1)NC(=O)[C@@H](NC(=O)OCc1ccccc1)C(C)(C)S(C)(=O)=O)c1ccccc1` [Example 5], in series [1], the kina/KI is 10^9 - 10^10 min^-1M^-1. The pIC50 in series [2] is 7.30. In addition, in series [3], the CT50 is over 10 µM.

Regarding `CC(C)C(NC(=O)OC[C@@H]1O[C@@H]1[C@H](Cc1ccccc1)NC(=O)[C@@H](NC(=O)OCc1ccccc1)C(C)(C)S(C)(=O)=O)C(C)C` [Example 6], the kina/KI in series [1] was 10^9 - 10^10 min^-1M^-1. Further, the pIC50 in series [2] is 7.30. In series [3], the CT50 is over 10 µM.

As to `CC(C)[C@@H](Cc1ccccc1)NC(=O)OC[C@@H]1O[C@@H]1[C@H](Cc1ccccc1)NC(=O)[C@@H](NC(=O)c1ccc2ccccc2n1)C(C)(C)S(C)(=O)=O` [Example 7, 4S-[N-(2-quinolinecarbonyl)-β-methanesulfony]-L-valinyl]amino-(3R,2S)-epoxy-5-pheny]-1-pentyl N-2S-(1-phenyl-3-methylbutyl) carbamate], the kina/KI in series [1] was 10^9 - 10^10 min^-1M^-1. For the same molecule, the pIC50 in series [2] was 7.70. The molecule further gave a CT50 in series [3] of over 10 µM.

With `CC(C)[C@H](NC(=O)OC[C@@H]1O[C@@H]1[C@H](Cc1ccccc1)NC(=O)[C@@H](NC(=O)c1ccc2ccccc2n1)C(C)(C)S(C)(=O)=O)c1ccccc1` [Example 8], the kina/KI in series [1] is 10^9 - 10^10 min^-1M^-1. The molecule also showed a negative-log IC50 (pIC50) in series [2] of 7.00. Also, in series [3], the CT50 was over 10 µM.

In the case of `CC(C)C(NC(=O)OC[C@@H]1O[C@@H]1[C@H](Cc1ccccc1)NC(=O)[C@@H](NC(=O)c1ccc2ccccc2n1)C(C)(C)S(C)(=O)=O)C(C)C` [Example 9], the kina/KI in series [1] is reported as 10^9 - 10^10 min^-1M^-1. Besides, in series [2], the pIC50 is 7.10. The CT50 in series [3] is on record as over 10 µM.

As to `CC(C)[C@@H](Cc1ccccc1)NC(=O)OC[C@@H]1O[C@@H]1[C@H](Cc1ccccc1)NC(=O)[C@@H](NC(=O)COc1cccc2cnccc12)C(C)(C)S(C)(=O)=O` [Example 10, 4S-[N-(5-isoquinolinyloxymethylenecarbonyl)-β-methanesulfonyl-L-valinyl]amino-(3R,2S)-epoxy-5-phenyl-1-pentyl N-2R-(1-phenyl-3-methylbutyl) carbamate], the kina/KI in series [1] is on record as 10^9 - 10^10 min^-1M^-1. For the same molecule, the pIC50 in series [2] was 7.92. Further, in series [3], the CT50 was over 10 µM.

In the case of `CC(C)[C@H](NC(=O)OC[C@@H]1O[C@@H]1[C@H](Cc1ccccc1)NC(=O)[C@@H](NC(=O)COc1cccc2cnccc12)C(C)(C)S(C)(=O)=O)c1ccccc1` [Example 11], the kina/KI in series [1] is given as 10^9 - 10^10 min^-1M^-1. In series [2], the pIC50 was 7.82. This molecule also registered a CT50 in series [3] of over 10 µM.

For the molecule `CC(C)C(NC(=O)OC[C@@H]1O[C@@H]1[C@H](Cc1ccccc1)NC(=O)[C@@H](NC(=O)COc1cccc2cnccc12)C(C)(C)S(C)(=O)=O)C(C)C` [Example 12], the kina/KI in series [1] was 10^9 - 10^10 min^-1M^-1. For the same molecule, the pIC50 in series [2] is 7.30. For the same molecule, the CT50 in series [3] is given as over 10 µM.
